In publication PMC5458078, “Global mapping of CARM1 substrates defines enzyme specificity and substrate recognition” (Nature Communications, 2017):
Read-outs that look alike come from different tables or passages of the source.

Columns and labels:
[1] = system: MCF7 cells; assay: Quantitative nanoLC-MS/MS (TMT) of ADMA-containing peptides, CARM1 KO vs parental; type: cell-based, human; set-up: Fold change KO/WT: scale not given here
[2] = system: MCF7 CARM1 KO cells; assay: Quantitative MS of ADMA-containing peptides in MCF7 CARM1 KO cells expressing CARM1 28-608 or CARM1 140-608, and in CARM1 KO; type: cell-based, human
[3] = ADMA-containing peptide, CARM1 knockout (KO) vs wild type (WT) MCF7 cells, 6-plex TMT experiment #1, three biological replicates each, sheet "MCF7"
[4] = difference of log2 means, CARM1 140-608 vs WT
[5] = difference of log2 means, KO vs WT
[6] = MCF7, CARM1 KO (KO1-KO3) vs wild type (WT1-WT3)
[7] = CARM1 140-608 vs WT, mean of 3 replicates (log2 scale)
[8] = KO vs WT, mean of 3 replicates (log2 scale)
[9] = MCF7, CARM1 KO vs WT, three biological replicates each
[10] = CARM1 140-608 vs WT, mean of 3 replicates, log2
[11] = KO vs WT, mean of 3 replicates, log2
[12] = MCF7 CARM1 knockout vs wild type, 3 biological replicates each, values are on log2 scale
[13] = ADMA-containing peptide, MCF7, CARM1 knockout (KO1-3) vs wild type (WT1-3), TMT 6-plex experiment #1
[14] = log2 scale ratio, mean of n = 3
[15] = ratio on log2 scale, mean of 3 replicates
[16] = CARM1 140-608 versus WT, mean of three replicates (log2)
[17] = KO versus WT, mean of three replicates (log2)
[18] = MCF7, CARM1 knockout vs wild type, n = 3 each

Substance: NSCPGPLDSSAFLSSDFLLPEDPKPrLPPPPVPPPLLHYPPPAK
- Fold change KO/WT [1, 3]: -3.136
- CARM1 140-608/WT [2, 4]: -1.41
- KO/WT [2, 5]: -3.136

Substance: NVNPVILLNTQTrPYGFGLNHGHTPYSSMLNQGLGVPGIGATQGLrTGFTNIPSrYGTNNR
- Fold change KO/WT [1, 6]: -2.828
- CARM1 140-608/WT [2, 7]: -1.7448
- KO/WT [2, 8]: -2.828

Substance: NrGAGGFGGGGGTR
- Fold change KO/WT [1, 9]: -0.03405
- CARM1 140-608/WT [2, 10]: 0.06902
- KO/WT [2, 11]: 0.4755

Substance: QAAPQMLQQQPPrLISVQTMQR
- Fold change KO/WT ([1]; CARM1 KO vs wild type MCF7 cells, 3 biological replicates each): -1.292
- CARM1 140-608/WT ([2]; CARM1 140-608 versus WT, difference of mean log2 values): -0.6208
- KO/WT ([2]; CARM1 KO versus WT, difference of mean log2 values): -1.292

Substance: QALGSPLAGISTrLPGPGEPVPGPAGPAQFIELrHNVQK
- Fold change KO/WT [1, 12]: -2.458
- CARM1 140-608/WT [2, 4]: -1.36
- KO/WT [2, 5]: -2.458

Substance: QAPrDGLTPVPPLAPAPrPPSSGLPAVLNPrPTLTPGrLPTPTLGTArAPMPTPTLVrPLLK
- Fold change KO/WT [1, 13]: -4.977
- CARM1 140-608/WT [2, 14]: -2.613
- KO/WT [2, 14]: -4.977

Substance: QGQPTPLVIQQPPKPGALIrPPQVTLTQTPMVALrQPHNR
- Fold change KO/WT [1, 13]: -2.284
- CARM1 140-608/WT [2, 14]: -1.328
- KO/WT [2, 14]: -2.284

Substance: QGSIGLYTQNQPLPAGGPrVDPYrPVrLPMQK
- Fold change KO/WT [1, 3]: -2.292
- CARM1 140-608/WT [2, 4]: -2.266
- KO/WT [2, 5]: -3.357

Substance: QHLLLrGPPPGSANPPrLVSSYrLK
- Fold change KO/WT [1, 12]: -1.782
- CARM1 140-608/WT [2, 4]: -1.091
- KO/WT [2, 5]: -1.563

Substance: QIrFSQGQQLVTK
- Fold change KO/WT [1, 9]: -2.537
- CARM1 140-608/WT [2, 15]: -1.837
- KO/WT [2, 15]: -2.537

Substance: QLESLWSDSPAPPGPQAGPPSRPPrYSSSSIPEPFGSR
- Fold change KO/WT [1, 6]: -2.771
- CARM1 140-608/WT [2, 16]: -1.865
- KO/WT [2, 17]: -2.771

Substance: QLPNAGPGAPPALGFSrFPAGAR
- Fold change KO/WT [1, 9]: -2.458
- CARM1 140-608/WT [2, 10]: -1.8557
- KO/WT [2, 11]: -2.458

Substance: QLPNAGPGAPPALGFSrFPAGArYAGAGGLER
- Fold change KO/WT [1, 9]: -4.1849
- CARM1 140-608/WT [2, 10]: -2.691
- KO/WT [2, 11]: -4.1849

Substance: QLQLQQQrMQLAQK
- Fold change KO/WT [1, 12]: -4.395
- CARM1 140-608/WT [2]: -2.654
- KO/WT [2]: -4.55

Substance: QLVGGSQAFYQrAPYPGSLPLQQQQQQLWQQQQATAATSMrFAMSARFPSTPGPELGR
- Fold change KO/WT [1, 12]: -2.512
- CARM1 140-608/WT [2, 4]: -1.475
- KO/WT [2, 5]: -2.512

Substance: QLrMQLQQrLQGQQFLNQSR
- Fold change KO/WT [1, 3]: -2.764
- CARM1 140-608/WT [2, 16]: -0.1108
- KO/WT [2, 17]: -1.926

Substance: QLrMQLQQrLQGQQFLNQSrQALELK
- Fold change KO/WT [1, 3]: -3.961
- CARM1 140-608/WT [2, 16]: -3.52
- KO/WT [2, 17]: -6.321

Substance: QLrYQQPGPGSSPSSFLLK
- Fold change KO/WT [1, 9]: -4.8874
- CARM1 140-608/WT [2, 10]: -1.181
- KO/WT [2, 11]: -5.114

Substance: QMAVPSFTQQILCPKPVHVrPPMPPrYPAPYGER
- Fold change KO/WT [1, 3]: -2.943
- CARM1 140-608/WT [2, 16]: 0.05331
- KO/WT [2, 17]: -2.9202

Substance: QPPPLQQQArFIQPrPTLNQPPPPLIrPANSMPPR
- Fold change KO/WT [1, 6]: -1.373
- CARM1 140-608/WT [2, 7]: 1.096
- KO/WT [2, 8]: -1.373

Substance: QPQPAQNVLAAPrLR
- Fold change KO/WT [1, 3]: -1.672
- CARM1 140-608/WT [2, 16]: -0.6318
- KO/WT [2, 17]: -1.672

Substance: QPVPFGLVrFGVAPDHPEVK
- Fold change KO/WT [1, 18]: -1.677
- CARM1 140-608/WT ([2]; mean, CARM1 140-608 versus WT (log2 scale)): -1.417
- KO/WT ([2]; mean, CARM1 KO versus WT (log2 scale)): -1.677

Substance: QSHTLPFPPPPALPFYPASAYPrHFGPVPPSQGR
- Fold change KO/WT [1, 18]: -1.33
- CARM1 140-608/WT [2, 15]: -0.8989
- KO/WT [2, 15]: -1.33

Substance: QSSATSSFGGLGGGSVrFGPGVAFR
- Fold change KO/WT [1, 12]: -2.868
- CARM1 140-608/WT [2, 4]: -2.723
- KO/WT [2, 5]: -4.023

Substance: QSSATSSFGGLGGGSVrFGPGVAFrAPSIHGGSGGR
- Fold change KO/WT [1, 12]: -1.828
- CARM1 140-608/WT [2, 4]: -1.331
- KO/WT [2, 5]: -1.828
